Test results: ChEMBL document CHEMBL5696443 (Clin Cancer Res, 2016)
Active and inactive are the calls of the source. The rule behind the calls is not given here.

Key:
[1] = molecular target: RAC-gamma serine/threonine-protein kinase (Homo sapiens) (UniProt Q9Y243); assay: Inhibition of human AKT3 at 1 uM using KGSGSGRPRTSSFAEG as substrate in presence of [gamma33P]-ATP by HotSpot assay relative to control
[2] = molecular target: Proto-oncogene tyrosine-protein kinase receptor Ret (Homo sapiens, UniProt P07949, V804L); assay: Inhibition of human RET V804L mutant using RRRRRRRRRRRVYSTDYYRLFNPS as substrate in presence of [gamma33P]-ATP by HotSpot assay
[3] = molecular target: Ribosomal protein S6 kinase alpha-5 (Homo sapiens) (UniProt O75582); assay: Inhibition of human RPS6KA5 at 1 uM using GRPRTSSFAEG as substrate in presence of [gamma33P]-ATP by HotSpot assay relative to control
[4] = molecular target: Death-associated protein kinase 1 (Homo sapiens) (UniProt P53355); assay: Inhibition of human DAPK1 at 1 uM using KKLNRTLSFAEPG as substrate in presence of [gamma33P]-ATP by HotSpot assay relative to control
[5] = molecular target: Ephrin type-B receptor 3 (Homo sapiens) (UniProt P54753); assay: Inhibition of human EPHB3 at 1 uM using poly (Glu, Tyr)4:1 as substrate in presence of [gamma33P]-ATP by HotSpot assay relative to control
[6] = system: EML4-ALK (Homo sapiens), Q9UM73+Q9HC35 [I1171N]; settings: BaF3, dose 750.0 nmol/L, time 3-5 weeks
KARPAS-299 [7] = assay: Antitumor activity against ALK positive human KARPAS-299 cells xenografted in SCID beige mouse assessed as tumor growth inhibition at 25 mg/kg, po administered once daily for 14 days relative to control; type: functional; settings: time 14 day
[8] = system: EML4-ALK (Homo sapiens), Q9UM73+Q9HC35 [I1171N]; settings: BaF3, time 3-5 weeks
[9] = molecular target: Protein kinase C epsilon type (Homo sapiens) (UniProt Q02156); assay: Inhibition of human PKCepsilon at 1 uM using ERMRPRKRQGSVRRRV as substrate in presence of [gamma33P]-ATP by HotSpot assay relative to control
SU-DHL-1 = settings: time 72 hrs
[10] = molecular target: Casein kinase I isoform epsilon (Homo sapiens) (UniProt P49674); assay: Inhibition of human CK1epsilon at 1 uM using KRRRAL[pS]VASLPGL as substrate in presence of [gamma33P]-ATP by HotSpot assay relative to control
[11] = molecular target: Receptor tyrosine-protein kinase erbB-2 (Homo sapiens, UniProt P04626); assay: Inhibition of human ERBB2 using poly (Glu, Tyr)4:1 as substrate in presence of [gamma33P]-ATP by HotSpot assay
[12] = molecular target: Tyrosine-protein kinase TXK (Homo sapiens) (UniProt P42681); assay: Inhibition of human TXK at 1 uM using EAIYAAPFAKKK as substrate in presence of [gamma33P]-ATP by HotSpot assay relative to control
Homo sapiens = organism: Homo sapiens; assay: Inhibition of human CDK2/CyclinA at 1 uM using RB protein as substrate in presence of [gamma33P]-ATP by HotSpot assay relative to control
[13] = molecular target: Dual specificity protein kinase CLK3 (Homo sapiens) (UniProt P49761); assay: Inhibition of human CLK3 at 1 uM using MBP as substrate in presence of [gamma33P]-ATP by HotSpot assay relative to control
[14] = system: EML4-ALK (Homo sapiens), Q9UM73+Q9HC35 [F1174V]; settings: BaF3, dose 200.0 nmol/L, time 3-5 weeks
[15] = Average plasma concentration in CB-17/SCID mouse at 25 mg/kg administered once a day for 4 days by LC-MS/MS analysis; type: ADME, organism-based; settings: in vivo, 96 h, time 4 day
[16] = molecular target: Tyrosine-protein kinase ITK/TSK (Homo sapiens) (UniProt Q08881); assay: Inhibition of human ITK at 1 uM using MBP as substrate in presence of [gamma33P]-ATP by HotSpot assay relative to control
[17] = molecular target: Inhibitor of nuclear factor kappa-B kinase subunit alpha (Homo sapiens) (UniProt O15111); assay: Inhibition of human CHUK at 1 uM using KKKKERLLDDRHDSGLDSMKDEE as substrate in presence of [gamma33P]-ATP by HotSpot assay relative to control
[18] = molecular target: Ephrin type-B receptor 4 (Homo sapiens) (UniProt P54760); assay: Inhibition of human EPHB4 at 1 uM using poly (Glu, Tyr)4:1 as substrate in presence of [gamma33P]-ATP by HotSpot assay relative to control
[19] = molecular target: Serine/threonine-protein kinase WNK3 (Homo sapiens) (UniProt Q9BYP7); assay: Inhibition of human WNK3 at 1 uM using MBP as substrate in presence of [gamma33P]-ATP by HotSpot assay relative to control
[20] = molecular target: Ribosomal protein S6 kinase alpha-3 (Homo sapiens, UniProt P51812); assay: Inhibition of human RPS6kA3 using KKLNRTLSVA as substrate in presence of [gamma33P]-ATP by HotSpot assay
[21] = molecular target: CDK9/Cyclin K (Homo sapiens) (UniProt P50750+O75909); assay: Inhibition of human CDK9/CyclinK at 1 uM using KTFCGTPEYLAPEVRREPRILSEEEQEMFRDFDYIADWC as substrate in presence of [gamma33P]-ATP by HotSpot assay relative to control; type: protein-complex assay
cells = settings: Homo sapiens, BaF3, 72 h
KARPAS-299 [22] = assay: Antitumor activity against ALK positive human KARPAS-299 cells xenografted in SCID beige mouse assessed as inhibition of tumor growth administered orally once daily for 14 days; type: functional, cell-based; settings: dose 10-50 mg/kg, route po, time 14.0 day
NCI-H2228 = assay: Antitumor activity against ALK positive human NCI-H2228 cells xenografted in SCID beige mouse assessed as tumor regression at 10 to 50 mg/kg, po administered once daily for 21 days and measured 28 days after treatment; type: functional, organism-based; settings: dose 10-50 mg/kg, time 28.0 day
[23] = molecular target: Serine/threonine-protein kinase DCLK2 (Homo sapiens) (UniProt Q8N568); assay: Inhibition of human DCLK2 at 1 uM using KKLNRTLSFAEPG as substrate in presence of [gamma33P]-ATP by HotSpot assay relative to control
[24] = molecular target: Tyrosine-protein kinase Tec (Homo sapiens) (UniProt P42680); assay: Inhibition of human TEC at 1 uM using poly (Glu, Tyr)4:1 as substrate in presence of [gamma33P]-ATP by HotSpot assay relative to control

Sequence of RAC-gamma serine/threonine-protein kinase (Homo sapiens) (Q9Y243 whole entry): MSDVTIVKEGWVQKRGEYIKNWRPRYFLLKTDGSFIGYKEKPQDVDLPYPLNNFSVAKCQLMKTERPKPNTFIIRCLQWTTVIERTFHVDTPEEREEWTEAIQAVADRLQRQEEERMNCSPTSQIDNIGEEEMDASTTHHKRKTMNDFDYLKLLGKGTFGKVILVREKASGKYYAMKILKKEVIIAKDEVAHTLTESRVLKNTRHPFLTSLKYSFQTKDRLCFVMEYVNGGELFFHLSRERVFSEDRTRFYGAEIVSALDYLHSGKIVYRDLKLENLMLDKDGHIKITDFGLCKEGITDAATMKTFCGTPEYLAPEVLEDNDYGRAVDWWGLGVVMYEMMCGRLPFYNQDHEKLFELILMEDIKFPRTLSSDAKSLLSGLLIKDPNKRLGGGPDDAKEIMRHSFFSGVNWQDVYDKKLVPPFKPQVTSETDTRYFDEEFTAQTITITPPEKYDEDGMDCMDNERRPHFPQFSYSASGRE
Sequence of Ephrin type-B receptor 3 (Homo sapiens) (P54753 whole entry): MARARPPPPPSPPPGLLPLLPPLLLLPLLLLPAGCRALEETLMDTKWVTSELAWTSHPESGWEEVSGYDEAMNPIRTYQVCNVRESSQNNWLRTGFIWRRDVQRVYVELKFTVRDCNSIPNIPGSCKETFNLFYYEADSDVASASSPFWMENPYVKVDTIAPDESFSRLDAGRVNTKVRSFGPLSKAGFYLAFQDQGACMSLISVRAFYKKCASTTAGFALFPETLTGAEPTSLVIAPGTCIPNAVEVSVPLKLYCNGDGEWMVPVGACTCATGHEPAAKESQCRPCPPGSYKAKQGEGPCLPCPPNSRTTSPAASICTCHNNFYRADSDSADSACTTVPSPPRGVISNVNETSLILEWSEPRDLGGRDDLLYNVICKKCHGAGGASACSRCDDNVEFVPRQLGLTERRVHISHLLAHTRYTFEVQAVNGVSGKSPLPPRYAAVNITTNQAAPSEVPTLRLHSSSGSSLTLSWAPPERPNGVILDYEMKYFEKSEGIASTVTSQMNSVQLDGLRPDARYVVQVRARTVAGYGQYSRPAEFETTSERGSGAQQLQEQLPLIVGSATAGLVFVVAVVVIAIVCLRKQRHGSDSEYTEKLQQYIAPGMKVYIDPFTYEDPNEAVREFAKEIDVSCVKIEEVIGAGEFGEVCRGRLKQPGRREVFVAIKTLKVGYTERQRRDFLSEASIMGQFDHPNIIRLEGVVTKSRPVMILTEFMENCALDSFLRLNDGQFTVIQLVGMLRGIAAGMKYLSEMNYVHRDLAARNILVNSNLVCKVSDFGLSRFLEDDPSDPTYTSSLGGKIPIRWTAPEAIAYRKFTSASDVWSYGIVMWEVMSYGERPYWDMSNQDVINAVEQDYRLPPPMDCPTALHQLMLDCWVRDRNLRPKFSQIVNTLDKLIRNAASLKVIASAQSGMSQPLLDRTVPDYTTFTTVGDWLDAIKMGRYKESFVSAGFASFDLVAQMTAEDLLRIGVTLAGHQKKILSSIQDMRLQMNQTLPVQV
Sequence of Ribosomal protein S6 kinase alpha-3 (P51812 whole entry): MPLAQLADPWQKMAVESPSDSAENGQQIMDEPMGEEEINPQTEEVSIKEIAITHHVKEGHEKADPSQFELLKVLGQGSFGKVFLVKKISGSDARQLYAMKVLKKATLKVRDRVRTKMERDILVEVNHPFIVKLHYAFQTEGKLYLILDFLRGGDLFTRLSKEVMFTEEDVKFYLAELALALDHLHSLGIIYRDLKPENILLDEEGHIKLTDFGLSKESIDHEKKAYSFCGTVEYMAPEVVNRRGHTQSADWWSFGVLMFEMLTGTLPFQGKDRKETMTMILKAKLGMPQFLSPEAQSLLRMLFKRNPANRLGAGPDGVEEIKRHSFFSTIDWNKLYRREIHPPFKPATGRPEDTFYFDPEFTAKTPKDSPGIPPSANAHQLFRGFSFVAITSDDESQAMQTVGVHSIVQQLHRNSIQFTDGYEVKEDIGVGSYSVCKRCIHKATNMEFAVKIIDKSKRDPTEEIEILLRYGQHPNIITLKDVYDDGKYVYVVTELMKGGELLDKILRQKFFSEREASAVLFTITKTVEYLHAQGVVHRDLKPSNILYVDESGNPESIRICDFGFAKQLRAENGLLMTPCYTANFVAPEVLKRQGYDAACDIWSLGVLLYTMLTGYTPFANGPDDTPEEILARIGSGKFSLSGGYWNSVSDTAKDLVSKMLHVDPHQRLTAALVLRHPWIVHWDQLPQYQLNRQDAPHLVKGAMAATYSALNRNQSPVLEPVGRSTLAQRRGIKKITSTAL
Sequence of Inhibitor of nuclear factor kappa-B kinase subunit alpha (Homo sapiens) (O15111 whole entry): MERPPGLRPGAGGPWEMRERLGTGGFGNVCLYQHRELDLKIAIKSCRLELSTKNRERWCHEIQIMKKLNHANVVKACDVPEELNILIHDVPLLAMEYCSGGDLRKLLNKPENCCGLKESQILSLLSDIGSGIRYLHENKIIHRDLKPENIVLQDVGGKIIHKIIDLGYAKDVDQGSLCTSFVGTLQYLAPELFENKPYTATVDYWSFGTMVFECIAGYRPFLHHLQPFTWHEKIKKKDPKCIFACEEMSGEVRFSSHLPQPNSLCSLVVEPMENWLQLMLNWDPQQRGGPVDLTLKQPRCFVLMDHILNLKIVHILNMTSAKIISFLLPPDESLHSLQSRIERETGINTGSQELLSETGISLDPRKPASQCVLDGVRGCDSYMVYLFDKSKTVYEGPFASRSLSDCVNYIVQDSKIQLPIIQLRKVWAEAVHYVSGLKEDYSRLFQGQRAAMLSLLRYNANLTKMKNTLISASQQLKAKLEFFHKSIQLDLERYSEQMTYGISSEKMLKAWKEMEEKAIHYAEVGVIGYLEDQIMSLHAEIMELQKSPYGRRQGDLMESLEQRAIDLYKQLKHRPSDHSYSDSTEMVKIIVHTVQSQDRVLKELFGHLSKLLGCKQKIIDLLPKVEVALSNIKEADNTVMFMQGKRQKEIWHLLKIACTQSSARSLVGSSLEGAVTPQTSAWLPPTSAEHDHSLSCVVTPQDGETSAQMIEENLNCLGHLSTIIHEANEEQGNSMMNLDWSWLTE
Sequence of Tyrosine-protein kinase TXK (Homo sapiens) (P42681 whole entry): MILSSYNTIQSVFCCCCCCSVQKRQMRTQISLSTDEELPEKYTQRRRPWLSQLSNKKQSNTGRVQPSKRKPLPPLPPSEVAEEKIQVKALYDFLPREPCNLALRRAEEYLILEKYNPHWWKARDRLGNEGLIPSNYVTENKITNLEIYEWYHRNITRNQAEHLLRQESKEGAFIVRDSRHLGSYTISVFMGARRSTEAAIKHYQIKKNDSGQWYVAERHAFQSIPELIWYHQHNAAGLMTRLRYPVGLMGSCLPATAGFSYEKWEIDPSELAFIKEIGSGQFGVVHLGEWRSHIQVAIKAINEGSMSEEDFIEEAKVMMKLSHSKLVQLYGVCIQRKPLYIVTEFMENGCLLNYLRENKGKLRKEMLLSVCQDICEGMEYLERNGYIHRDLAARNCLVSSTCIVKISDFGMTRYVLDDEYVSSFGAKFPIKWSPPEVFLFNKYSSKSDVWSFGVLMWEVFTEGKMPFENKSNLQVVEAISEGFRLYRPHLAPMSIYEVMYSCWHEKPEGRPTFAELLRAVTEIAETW
Sequence of Proto-oncogene tyrosine-protein kinase receptor Ret (P07949 29-1114 V804L limits assumed): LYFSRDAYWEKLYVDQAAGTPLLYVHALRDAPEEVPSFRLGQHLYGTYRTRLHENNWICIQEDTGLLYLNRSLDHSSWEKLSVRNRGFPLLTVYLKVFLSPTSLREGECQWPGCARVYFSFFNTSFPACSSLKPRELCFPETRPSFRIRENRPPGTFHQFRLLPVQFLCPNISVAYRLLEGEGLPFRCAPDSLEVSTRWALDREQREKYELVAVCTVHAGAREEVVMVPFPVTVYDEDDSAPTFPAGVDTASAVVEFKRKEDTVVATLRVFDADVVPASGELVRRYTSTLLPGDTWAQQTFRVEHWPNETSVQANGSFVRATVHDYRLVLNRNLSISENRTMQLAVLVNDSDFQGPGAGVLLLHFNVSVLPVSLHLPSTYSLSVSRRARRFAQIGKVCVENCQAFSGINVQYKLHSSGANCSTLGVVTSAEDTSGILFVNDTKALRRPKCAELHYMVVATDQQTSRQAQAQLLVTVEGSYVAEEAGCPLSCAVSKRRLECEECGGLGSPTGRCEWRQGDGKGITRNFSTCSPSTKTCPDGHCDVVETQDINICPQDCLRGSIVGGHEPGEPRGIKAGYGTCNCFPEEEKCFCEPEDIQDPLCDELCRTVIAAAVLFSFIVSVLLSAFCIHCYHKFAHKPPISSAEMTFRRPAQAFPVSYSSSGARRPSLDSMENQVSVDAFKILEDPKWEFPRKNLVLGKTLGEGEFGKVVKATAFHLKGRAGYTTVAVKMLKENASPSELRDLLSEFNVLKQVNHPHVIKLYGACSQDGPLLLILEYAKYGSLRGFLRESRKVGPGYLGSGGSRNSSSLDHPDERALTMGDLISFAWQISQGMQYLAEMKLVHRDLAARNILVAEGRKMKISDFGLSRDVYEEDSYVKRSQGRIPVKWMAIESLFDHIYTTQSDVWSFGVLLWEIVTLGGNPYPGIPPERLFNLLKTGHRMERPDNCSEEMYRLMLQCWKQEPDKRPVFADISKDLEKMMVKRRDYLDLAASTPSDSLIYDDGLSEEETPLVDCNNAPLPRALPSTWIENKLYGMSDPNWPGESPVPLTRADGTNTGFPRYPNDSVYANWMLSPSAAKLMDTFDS
Sequence of Casein kinase I isoform epsilon (Homo sapiens) (P49674 whole entry, looked up, canonical isoform): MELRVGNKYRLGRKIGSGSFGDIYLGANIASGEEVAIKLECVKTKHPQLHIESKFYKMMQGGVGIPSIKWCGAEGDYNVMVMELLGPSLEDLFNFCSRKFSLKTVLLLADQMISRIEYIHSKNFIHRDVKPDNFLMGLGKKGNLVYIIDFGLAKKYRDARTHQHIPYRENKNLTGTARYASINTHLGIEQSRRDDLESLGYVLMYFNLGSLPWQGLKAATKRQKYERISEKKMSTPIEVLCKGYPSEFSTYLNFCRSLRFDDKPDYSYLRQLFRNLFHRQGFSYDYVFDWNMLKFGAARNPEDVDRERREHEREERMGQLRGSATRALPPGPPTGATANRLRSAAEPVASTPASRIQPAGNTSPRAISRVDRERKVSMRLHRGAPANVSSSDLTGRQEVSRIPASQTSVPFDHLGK

Q: What does the source list for `COc1cc(N2CCC(N3CCN(C)CC3)CC2)ccc1Nc1ncc(Cl)c(Nc2ccccc2P(C)(C)=O)n1` [BRIGATINIB]?
A: inhibition [1]: < 90%; IC50 [2]: 0.027 µM; inhibition [3]: < 90%; inhibition [4]: < 90%; inhibition [5]: < 90%; inhibition [6]: Active; TGI (KARPAS-299 [7]): 87%; IC90 [8]: 0.278 µM; inhibition [9]: < 90%; GI50 (SU-DHL-1): 0.009 µM; inhibition [10]: < 90%; IC50 [11]: 0.042 µM; inhibition [12]: < 90%; inhibition (Homo sapiens): < 90%; inhibition [13]: < 90%; inhibition [14]: inactive; Cave [15]: 0.844 µM; inhibition [16]: < 90%; inhibition [17]: < 90%; inhibition [18]: < 90%; inhibition [19]: < 90%; IC50 [20]: 0.026 µM; inhibition [21]: < 90%; IC50 (cells): 0.031 µM; Activity (KARPAS-299 [22]): Dose-Dependent Effect; Activity (NCI-H2228): Active; inhibition [23]: < 90%; inhibition [24]: < 90%
